# From ChEMBL document CHEMBL4819112, “Design, synthesis and antitumor activity of phthalazine-1,4-dione-based menaquinone analogs” (Bioorg Med Chem Lett, 2021)
# The source made the active and inactive calls. The calls are words filed in the database; no cut-off is given here.
# Columns and labels:
# JHH7 = experiment: (§1) Growth inhibition of human JHH7 cells measured after 24 hrs; format: functional, cell-based
# [1] = as §1; format: functional, cell-based; conditions: JHH7, 24 h
# Hepatocyte = experiment: Growth inhibition of human hepatocytes cells upto 10 uM measured after 24 hrs; format: cell-based
# FLC-4 = experiment: Growth inhibition of human FLC-4 cells measured after 24 hrs; format: functional, cell-based
Structure (SMILES),Activity (JHH7),IC50 [1],Activity (Hepatocyte),Activity (FLC-4)
CC(C)=CCC/C(C)=C/CC/C(C)=C/CC/C(C)=C/Cn1c(=O)c2ccccc2c(=O)n1C,Active,–,–,–
CC(C)=CCC/C(C)=C/Cn1c(=O)c2ccccc2c(=O)n1C,–,340 nM,Non-Toxic,Active
CC(C)=CCC/C(C)=C/CC/C(C)=C/Cn1c(=O)c2ccccc2c(=O)n1C,Active,–,–,–
CC(C)=CCn1c(=O)c2ccccc2c(=O)n1C,Active,–,Non-Toxic,–
C/C(=C\CC/C(C)=C/Cn1c(=O)c2ccccc2c(=O)n1C)CC/C=C(\C)CC/C=C(\C)C(=O)O,Active,–,–,–
